Holding throughout (format): functional, cell-based
For one test, the target named is T1, Bile acid receptor (Homo sapiens, UniProt Q96RI1).
T1 sequence (Q96RI1 whole entry): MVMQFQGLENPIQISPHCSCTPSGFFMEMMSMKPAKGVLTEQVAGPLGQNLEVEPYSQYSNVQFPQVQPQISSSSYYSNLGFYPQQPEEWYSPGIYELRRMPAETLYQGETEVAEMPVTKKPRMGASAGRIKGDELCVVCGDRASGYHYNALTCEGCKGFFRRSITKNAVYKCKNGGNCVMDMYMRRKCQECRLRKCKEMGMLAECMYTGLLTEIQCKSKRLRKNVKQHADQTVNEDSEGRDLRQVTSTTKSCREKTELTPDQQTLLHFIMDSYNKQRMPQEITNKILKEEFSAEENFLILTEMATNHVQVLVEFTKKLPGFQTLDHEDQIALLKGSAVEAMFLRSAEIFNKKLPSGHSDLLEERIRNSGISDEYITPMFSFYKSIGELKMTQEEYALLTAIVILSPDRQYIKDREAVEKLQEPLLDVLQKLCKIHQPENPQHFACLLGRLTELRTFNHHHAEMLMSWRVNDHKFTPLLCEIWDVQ
The test can be described thus: Agonist activity at human […] FXR LBD expressed in HEK293 cells coexpressing GAL4-DNA bindig domain and pFRluc by mammalian one-hybrid assay. Conditions: read-out: EC50.

The target in the next test is T2, Progesterone receptor (Homo sapiens, UniProt P06401).
T2 sequence (P06401 whole entry): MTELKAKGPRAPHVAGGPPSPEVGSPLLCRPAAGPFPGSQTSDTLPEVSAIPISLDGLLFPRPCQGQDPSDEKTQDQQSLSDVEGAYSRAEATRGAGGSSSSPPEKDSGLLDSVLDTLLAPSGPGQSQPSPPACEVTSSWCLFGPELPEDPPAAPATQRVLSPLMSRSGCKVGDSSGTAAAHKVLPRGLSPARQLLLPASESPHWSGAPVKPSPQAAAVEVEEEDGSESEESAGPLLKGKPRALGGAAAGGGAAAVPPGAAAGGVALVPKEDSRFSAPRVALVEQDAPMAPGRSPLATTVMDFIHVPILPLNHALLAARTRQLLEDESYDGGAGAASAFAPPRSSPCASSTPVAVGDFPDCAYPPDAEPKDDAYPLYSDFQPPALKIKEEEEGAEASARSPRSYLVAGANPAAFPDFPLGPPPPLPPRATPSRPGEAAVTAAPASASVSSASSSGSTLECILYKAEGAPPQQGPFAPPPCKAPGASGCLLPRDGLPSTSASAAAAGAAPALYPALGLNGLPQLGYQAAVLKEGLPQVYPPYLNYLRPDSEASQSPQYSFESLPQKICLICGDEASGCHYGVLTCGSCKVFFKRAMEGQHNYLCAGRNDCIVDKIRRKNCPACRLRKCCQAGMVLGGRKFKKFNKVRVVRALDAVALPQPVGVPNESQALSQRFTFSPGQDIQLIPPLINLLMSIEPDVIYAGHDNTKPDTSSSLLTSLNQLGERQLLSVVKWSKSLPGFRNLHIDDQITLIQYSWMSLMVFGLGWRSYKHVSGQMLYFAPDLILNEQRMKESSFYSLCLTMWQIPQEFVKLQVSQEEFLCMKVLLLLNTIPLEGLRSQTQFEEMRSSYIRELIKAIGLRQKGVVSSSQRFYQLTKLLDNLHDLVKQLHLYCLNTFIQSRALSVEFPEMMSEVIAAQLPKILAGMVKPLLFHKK
As to the kind of experiment: Agonist activity at progesterone receptor-LBD expressed in HEK293 cells assessed as Gal4-DBD interaction by cellular mammalian one hybrid assay.

In test [1] the target is T3, Peroxisome proliferator-activated receptor delta (Homo sapiens, UniProt Q03181).
T3 sequence (Q03181 whole entry): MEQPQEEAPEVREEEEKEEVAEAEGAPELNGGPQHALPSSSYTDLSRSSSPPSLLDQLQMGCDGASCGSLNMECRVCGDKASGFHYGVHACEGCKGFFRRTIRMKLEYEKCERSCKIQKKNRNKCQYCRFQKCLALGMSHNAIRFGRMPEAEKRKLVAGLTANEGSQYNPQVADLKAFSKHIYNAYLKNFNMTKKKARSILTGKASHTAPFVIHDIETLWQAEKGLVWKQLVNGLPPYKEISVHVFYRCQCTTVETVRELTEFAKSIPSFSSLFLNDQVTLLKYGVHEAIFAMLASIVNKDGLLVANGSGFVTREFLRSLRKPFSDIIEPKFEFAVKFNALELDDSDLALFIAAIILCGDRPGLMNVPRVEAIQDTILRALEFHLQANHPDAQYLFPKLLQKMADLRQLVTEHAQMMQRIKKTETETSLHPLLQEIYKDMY
The test can be described thus: Agonist activity at PPAR-beta/delta-LBD expressed in HEK293 cells assessed as Gal4-DBD interaction by cellular mammalian one hybrid assay.

The target of test [2] is T4, Glucocorticoid receptor (Homo sapiens) (UniProt P04150).
T4 sequence (whole entry): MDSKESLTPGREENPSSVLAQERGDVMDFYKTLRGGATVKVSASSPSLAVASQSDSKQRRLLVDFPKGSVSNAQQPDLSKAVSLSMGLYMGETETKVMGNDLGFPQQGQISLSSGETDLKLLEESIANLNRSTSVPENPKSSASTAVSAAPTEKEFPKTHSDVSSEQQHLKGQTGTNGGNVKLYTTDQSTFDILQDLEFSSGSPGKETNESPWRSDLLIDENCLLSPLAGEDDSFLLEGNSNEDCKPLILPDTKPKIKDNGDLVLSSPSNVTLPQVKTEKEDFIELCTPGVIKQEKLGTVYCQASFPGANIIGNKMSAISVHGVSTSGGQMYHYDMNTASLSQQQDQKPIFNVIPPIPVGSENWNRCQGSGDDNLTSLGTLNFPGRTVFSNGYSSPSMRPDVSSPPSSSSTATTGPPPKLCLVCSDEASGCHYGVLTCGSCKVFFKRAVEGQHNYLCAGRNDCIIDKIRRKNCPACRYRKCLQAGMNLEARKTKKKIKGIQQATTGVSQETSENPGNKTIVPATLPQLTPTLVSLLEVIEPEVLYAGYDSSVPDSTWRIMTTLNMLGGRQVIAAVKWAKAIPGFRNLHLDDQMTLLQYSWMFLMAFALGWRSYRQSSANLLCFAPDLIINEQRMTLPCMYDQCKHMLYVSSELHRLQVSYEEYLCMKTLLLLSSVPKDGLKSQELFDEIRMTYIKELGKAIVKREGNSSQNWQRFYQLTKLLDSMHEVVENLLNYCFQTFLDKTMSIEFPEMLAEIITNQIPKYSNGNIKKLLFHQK
The test can be described thus: Agonist activity at GR-LBD expressed in HEK293 cells assessed as Gal4-DBD interaction by cellular mammalian one hybrid assay relative to glucocorticoid.

The structures appear in SMILES notation.

Take `CC(C)c1onc(-c2c(Cl)cccc2Cl)c1COc1ccc(N(C)Cc2ccc(C(=O)O)cc2)c(C(F)(F)F)n1`: the EC50 at Bile acid receptor is 0.09 µM; on Progesterone receptor, more than 10 µM; in test [1] it was more than 10 µM. Moreover, the Efficacy in test [2] is 0%.

Regarding `CN(Cc1ccc(C(=O)O)cc1)c1ccc(OCc2c(-c3c(Cl)cccc3Cl)noc2C2CC2)nc1C(F)(F)F`, the EC50 on Bile acid receptor was 0.03 µM; on Progesterone receptor, more than 10 µM; in test [1], more than 10 µM. Moreover, the Efficacy in test [2] was found to be 0%.

Take `CN(Cc1cccc(C(=O)O)c1)c1ccc(OCc2c(-c3c(Cl)cccc3Cl)noc2C2CC2)nc1C(F)(F)F`: the EC50 was 0.009 µM on Bile acid receptor, more than 10 µM at Progesterone receptor and more than 10 µM in test [1]. Further, in test [2], the Efficacy came out at 0%.

A word on the EC50: it is the concentration giving half of the maximal effect.

For the origin of these results see ChEMBL document CHEMBL1208782, “Synthesis and pharmacological validation of a novel series of non-steroidal FXR agonists” (Bioorg Med Chem Lett, 2010).
